≈ marks a conversion by molar mass, not a printed value. Where two headings read alike, the source gives them in different places.
What was measured:
Experiment in all cases: MIC, agar incorporation method
[1] = test system: E. faecium 398(VRE); type: cell-based, Enterococcus faecium; details: Enterococcus faecium; S. No. 22, E. faecium 398(VRE); read-out: MIC
[2] = test system: S. aureus ATCC 25923; type: cell-based, Staphylococcus aureus; details: Staphylococcus aureus, ATCC25923; S. No. 1, organism cell empty; read-out: MIC
[3] = test system: S. pneumoniae AB 34; type: cell-based, Streptococcus pneumoniae; details: Streptococcus pneumoniae, AB34; S. No. 49, S. pneumoniae AB 34; read-out: MIC
[4] = test system: S. aureus SG 511; type: cell-based, Staphylococcus aureus; details: Staphylococcus aureus, SG511
[5] = test system: S. pneumoniae AB4; type: cell-based, Streptococcus pneumoniae; details: Streptococcus pneumoniae; S. No. 33, S. pneumoniae AB4; read-out: MIC
[6] = test system: Moraxella M1; type: cell-based; details: S. No. 58, Moraxella M1; read-out: MIC
[7] = test system: S. pneumoniae ATCC 6303; type: cell-based, Streptococcus pneumoniae; details: Streptococcus pneumoniae, ATCC6303
[8] = test system: Acinetobacter 9956; type: cell-based; details: S. No. 30, Acinetobacter 9956; read-out: MIC
[9] = test system: E. coli 25922; type: cell-based; details: Escherichia coli; S. No. 25, E. coli 25922; read-out: MIC
[10] = test system: S. aureus (MRSA 33) Cipro R; type: cell-based, Staphylococcus aureus; details: Staphylococcus aureus; S. No. 7, S. aureus (MRSA 33) Cipro R; read-out: MIC
[11] = test system: S. pneumoniae 217; type: cell-based, Streptococcus pneumoniae; details: Streptococcus pneumoniae
[12] = test system: S pneumoniae 1294.; type: cell-based, Streptococcus pneumoniae; details: Streptococcus pneumoniae
[13] = test system: S. pneumoniae AB 31; type: cell-based, Streptococcus pneumoniae; details: Streptococcus pneumoniae, AB31
[14] = test system: S. pyogenes 20361; type: cell-based, Streptococcus pyogenes; details: Streptococcus pyogenes; S. No. 53, S. pyogenes 20361; read-out: MIC
[15] = test system: S. aureus (Smith 49951); type: cell-based, Staphylococcus aureus; details: Staphylococcus aureus; S. No. 9, S. aureus (Smith 49951); read-out: MIC
[16] = test system: (MRSA) 562; type: cell-based, Staphylococcus aureus; details: Staphylococcus aureus; S. No. 8, (MRSA) 562; read-out: MIC
[17] = test system: S. pneumoniae AB 16; type: cell-based, Streptococcus pneumoniae; details: Streptococcus pneumoniae, AB16
[18] = test system: S. pneumoniae AB 17; type: cell-based, Streptococcus pneumoniae; details: Streptococcus pneumoniae, AB17; S. No. 40, S. pneumoniae AB 17; read-out: MIC
[19] = test system: S. pneumoniae CS 1687; type: cell-based, Streptococcus pneumoniae; details: Streptococcus pneumoniae, CS1687
[20] = test system: S. pneumoniae AB 25; type: cell-based, Streptococcus pneumoniae; details: Streptococcus pneumoniae, AB25
[21] = test system: S. pneumoniae AB 29; type: cell-based, Streptococcus pneumoniae; details: Streptococcus pneumoniae, AB29
[22] = test system: Serratia marcescens 12999; type: cell-based; details: S. No. 29, Serratia marcescens 12999; read-out: MIC
[23] = test system: S. pneumoniae AB 21; type: cell-based, Streptococcus pneumoniae; details: Streptococcus pneumoniae, AB21
[24] = test system: E. faecalis 29212; type: cell-based; details: Enterococcus faecalis; S. No. 17, E. faecalis 29212; read-out: MIC
[25] = test system: S. aureus ATCC29213; type: cell-based, Staphylococcus aureus; details: Staphylococcus aureus; S. No. 2, S. aureus ATCC29213; read-out: MIC
[26] = test system: S. aureus (MRSA) 21299; type: cell-based, Staphylococcus aureus; details: Staphylococcus aureus; S. No. 5, S. aureus (MRSA) 21299; read-out: MIC
[27] = test system: P. aeruginosa ATCC 27853; type: cell-based; details: Pseudomonas aeruginosa, ATCC27853; S. No. 28, P. aeruginosa ATCC 27853; read-out: MIC
[28] = test system: S. pneumoniae AB 10; type: cell-based, Streptococcus pneumoniae; details: Streptococcus pneumoniae, AB10; S. No. 35, S. pneumoniae AB 10; read-out: MIC
[29] = test system: S. pneumoniae 1275; type: cell-based, Streptococcus pneumoniae; details: Streptococcus pneumoniae; S. No. 57, S. pneumoniae 1275; read-out: MIC
[30] = test system: S. epidermidis (MRSE)32965; type: cell-based, Staphylococcus epidermidis; details: Staphylococcus epidermidis
[31] = test system: S. pyogenes 19615; type: cell-based, Streptococcus pyogenes; details: Streptococcus pyogenes
[32] = test system: S. pneumoniae CS1221; type: cell-based, Streptococcus pneumoniae; details: Streptococcus pneumoniae; S. No. 34, S. pneumoniae CS1221; read-out: MIC
[33] = test system: Moraxella cata. M2; type: cell-based; details: S. No. 59, Moraxella cata. M2; read-out: MIC
[34] = test system: S. pneumoniae AB 14; type: cell-based, Streptococcus pneumoniae; details: Streptococcus pneumoniae, AB14
[35] = test system: S. haemo ATCC 29970; type: cell-based
[36] = test system: E. durans 581; type: cell-based; details: Enterococcus durans; S. No. 24, E. durans 581; read-out: MIC

What does the source list for `CC(=O)NC[C@H]1CN(c2ccc(N3CCN(c4ccc([N+](=O)[O-])s4)CC3)c(F)c2)C(=O)O1` [Compound No. 1, (S)—N-[[3-[3-Fluoro-4-[4-(5-nitro-2-thienyl)-1-piperazinyl]phenyl]-2-oxo-5-oxazolidinyl]methyl]acetamide]?
MIC [1]: 0.25 µg/mL (≈ 0.539 µM); MIC [2]: 0.25 µg/mL (≈ 0.539 µM); MIC [3]: 0.25 µg/mL (≈ 0.539 µM); MIC [4]: 0.125 µg/mL (≈ 0.27 µM); MIC [5]: 0.06 µg/mL (≈ 0.129 µM); MIC [6]: 1 µg/mL (≈ 2.16 µM); MIC [7]: 0.125 µg/mL (≈ 0.27 µM); MIC [8]: > 16 µg/mL; MIC [9]: > 16 µg/mL; MIC [10]: 0.25 µg/mL (≈ 0.539 µM); MIC [11]; 217: 0.125 µg/mL (≈ 0.27 µM); MIC ([12]; 1294.): 0.125 µg/mL (≈ 0.27 µM); MIC [13]: 0.125 µg/mL (≈ 0.27 µM); MIC [14]: 0.06 µg/mL (≈ 0.129 µM); MIC [15]: 0.25 µg/mL (≈ 0.539 µM); MIC [16]: 0.25 µg/mL (≈ 0.539 µM); MIC [17]: 0.125 µg/mL (≈ 0.27 µM); MIC [18]: 0.06 µg/mL (≈ 0.129 µM); MIC [19]: 0.125 µg/mL (≈ 0.27 µM); MIC [20]: 0.125 µg/mL (≈ 0.27 µM); MIC [21]: 0.125 µg/mL (≈ 0.27 µM); MIC [22]: > 16 µg/mL; MIC [23]: 0.125 µg/mL (≈ 0.27 µM); MIC [24]: 0.25 µg/mL (≈ 0.539 µM); MIC [25]: 0.25 µg/mL (≈ 0.539 µM); MIC [26]: 0.25 µg/mL (≈ 0.539 µM); MIC [27]: > 16 µg/mL; MIC [28]: 0.06 µg/mL (≈ 0.129 µM); MIC [29]: 0.06 µg/mL (≈ 0.129 µM); MIC ([30]; MRSE): 0.125 µg/mL (≈ 0.27 µM); MIC [31]; 19615: 0.125 µg/mL (≈ 0.27 µM); MIC [32]: 0.06 µg/mL (≈ 0.129 µM); MIC [33]: 0.25 µg/mL (≈ 0.539 µM); MIC [34]: 0.125 µg/mL (≈ 0.27 µM); MIC [35]: 0.125 µg/mL (≈ 0.27 µM); MIC [36]: 0.25 µg/mL (≈ 0.539 µM)

Which MIC [1] does the source give for `CC(=O)NC[C@H]1CN(c2ccc(N3CCN(c4ccc(C=O)s4)CC3)c(F)c2)C(=O)O1` [Compound No. 2, (S)—N-[[3-[3-Fluoro-4-[4-(5-formyl-2-thienyl)-1-piperazinyl]phenyl]-2-oxo-5-oxazolidinyl]methyl]acetamide] here?
Its MIC is 0.5 µg/mL (≈ 1.12 µM).

And the MIC [2]?
Its MIC is 1 µg/mL (≈ 2.24 µM).

And the MIC [3]?
The MIC was 0.5 µg/mL (≈ 1.12 µM).

And the MIC ([4]; S. No. 3, S. aureus SG 511, read-out: MIC)?
Its MIC is 0.5 µg/mL (≈ 1.12 µM).

And the MIC [5]?
Its MIC is 0.5 µg/mL (≈ 1.12 µM).

And the MIC [6]?
The MIC was 0.5 µg/mL (≈ 1.12 µM).

What about the MIC ([7]; S. No. 50, S. pneumoniae ATCC 6303, read-out: MIC) of the same compound?
The MIC was 0.5 µg/mL (≈ 1.12 µM).

What about the MIC [8] of the same compound?
Its MIC is > 16 µg/mL.

What about the MIC [9] of the same compound?
Its MIC is > 16 µg/mL.

And the MIC [10]?
The MIC was 0.5 µg/mL (≈ 1.12 µM).

And the MIC ([11]; S. No. 38, S. pneumoniae 217, read-out: MIC)?
Its MIC is 0.5 µg/mL (≈ 1.12 µM).

What about the MIC ([12]; S. No. 55, S pneumoniae 1294., read-out: MIC) of the same compound?
The MIC was 0.5 µg/mL (≈ 1.12 µM).

What about the MIC ([13]; S. No. 36, S. pneumoniae AB 31, read-out: MIC) of the same compound?
The MIC was 0.5 µg/mL (≈ 1.12 µM).

What about the MIC [14] of the same compound?
Its MIC is 0.5 µg/mL (≈ 1.12 µM).

What about the MIC [15] of the same compound?
The MIC was 0.5 µg/mL (≈ 1.12 µM).

And the MIC [16]?
Its MIC is 0.5 µg/mL (≈ 1.12 µM).

What about the MIC ([17]; S. No. 39, S. pneumoniae AB 16, read-out: MIC) of the same compound?
Its MIC is < 0.25 µg/mL.

And the MIC [18]?
Its MIC is 0.5 µg/mL (≈ 1.12 µM).

And the MIC ([19]; S. No. 44, S. pneumoniae CS 1687, read-out: MIC)?
Its MIC is 0.5 µg/mL (≈ 1.12 µM).

And the MIC ([20]; S. No. 45, S. pneumoniae AB 25, read-out: MIC)?
The MIC was < 0.25 µg/mL.

What about the MIC ([21]; S. No. 46, S. pneumoniae AB 29, read-out: MIC) of the same compound?
Its MIC is < 0.25 µg/mL.

And the MIC [22]?
Its MIC is > 16 µg/mL.

And the MIC ([23]; S. No. 41, S. pneumoniae AB 21, read-out: MIC)?
Its MIC is 0.5 µg/mL (≈ 1.12 µM).

And the MIC [24]?
Its MIC is < 0.25 µg/mL.

What about the MIC [25] of the same compound?
The MIC was 1 µg/mL (≈ 2.24 µM).

And the MIC [26]?
Its MIC is 0.5 µg/mL (≈ 1.12 µM).

And the MIC [27]?
Its MIC is > 16 µg/mL.

What about the MIC [28] of the same compound?
The MIC was < 0.25 µg/mL.

What about the MIC [29] of the same compound?
Its MIC is < 0.25 µg/mL.

And the MIC ([30]; S. No. 13, S. epidermidis (MRSE)32965, read-out: MIC)?
The MIC was < 0.25 µg/mL.

And the MIC ([31]; S. No. 51, S. pyogenes 19615, read-out: MIC)?
Its MIC is 0.5 µg/mL (≈ 1.12 µM).

What about the MIC [32] of the same compound?
Its MIC is 0.5 µg/mL (≈ 1.12 µM).

And the MIC [33]?
The MIC was 0.5 µg/mL (≈ 1.12 µM).

What about the MIC ([34]; S. No. 37, S. pneumoniae AB 14, read-out: MIC) of the same compound?
The MIC was < 0.25 µg/mL.

And the MIC ([35]; S. No. 15, S. haemo ATCC 29970, read-out: MIC)?
The MIC was 0.5 µg/mL (≈ 1.12 µM).

What about the MIC [36] of the same compound?
Its MIC is 0.5 µg/mL (≈ 1.12 µM).
